The results in this text go back to PubChem BioAssay (NCI).

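The compound was tested at five concentrations on cells cultured in 96-well plates, with a 48-hour exposure period. Here, GI50 denotes the concentration required for 50% inhibition of growth. The concentration for full growth arrest is given as TGI.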 A value given as a limit tells only on which side of the number the result lay.

Common to all, as to test: NCI-60 cell line screen, 48 h
For assay [1], the system named is MDA-MB-435.
The test system of assay [2] is BT-549 breast.
Assay [3] concerns 786-0 renal.
The subject of assay [4] is SN12C renal.
In assay [5] the test system is IGROV1 ovarian.
In assay [6] the test system is HT29 colon.
Assay [7] concerns HCT-116 colon.

As to `O=NN(CC(=O)NNc1ccccc1)CC(=O)NNc1ccccc1`, the GI50 was greater than 20.1 µM in assay [1]; greater than 28.7 µM in assay [2]; 7.85 µM in assay [3]; greater than 100 µM in assay [4]; greater than 64 µM in assay [5]; greater than 100 µM in assay [6]. In addition, the GI50 in assay [7] was greater than 100 µM. In addition, the TGI in assay [1], in assay [2], in assay [3], in assay [4], in assay [5] and in assay [6] was greater than 100 µM each time. This molecule had a TGI in assay [7] greater than 100 µM.
Turning to `CCOC(=O)CCC(NC(=O)c1ccc(Oc2nc3cc(N)cc(N)c3nc2-c2ccccc2)cc1)C(=O)OCC` (configuration not stated), the GI50 is 30.2 µM in assay [1]; 33.7 µM in assay [2]; 89 µM in assay [3]; 18.2 µM in assay [5]; 15.1 µM in assay [7]. For the same molecule, the TGI in assay [1] was greater than 100 µM; in assay [2], greater than 100 µM; in assay [3], greater than 100 µM; in assay [5] it was 78.7 µM; in assay [7], 28.7 µM.
As to `CN(COC(=O)C(C)(C)C)c1nc(N(C)COC(=O)C(C)(C)C)nc(N(C)COC(=O)C(C)(C)C)n1`, the TGI in assay [2] is greater than 100 µM; in assay [3] it was greater than 100 µM; in assay [4] it was greater than 100 µM; in assay [5], greater than 100 µM; in assay [6], greater than 100 µM; in assay [7], 39.3 µM.
In the case of `COc1ccc(/C(=N/O)c2cc(F)c(F)c(OC)c2F)cc1O`, the GI50 was 10.5 µM in assay [3]; 0.832 µM in assay [4]; 0.815 µM in assay [5]; 3.6 µM in assay [6]; 0.393 µM in assay [7]. In addition, the TGI in assay [3] is greater than 100 µM; in assay [4], greater than 100 µM; in assay [5] it was greater than 100 µM; in assay [6], 65.4 µM; in assay [7], greater than 100 µM.
Turning to `O=C(/C=C/c1cccc(Cl)c1)c1ccccc1`, the GI50 in assay [1] is 2 µM; in assay [3] it was 10.6 µM; in assay [4] it was 14.6 µM; in assay [5], 2.06 µM; in assay [7] it was 1.44 µM. In addition, the TGI in assay [1] worked out at 5.43 µM; in assay [3], 22.8 µM; in assay [4], 28.3 µM; in assay [5], 6.41 µM; in assay [7], 2.97 µM.
With `O=C1c2c[n+](Cc3ccccc3)ccc2-c2nc3ccccc3c3ccnc1c23`, the GI50 in assay [1] was 0.434 µM; in assay [2], 1.15 µM; in assay [3] it was 0.829 µM; in assay [5] it was 0.827 µM; in assay [6], 0.971 µM; in assay [7], 0.422 µM. The TGI in assay [1] came to 0.972 µM; in assay [2], 4.85 µM; in assay [3] it was 2.76 µM; in assay [5] it was 4.04 µM; in assay [6] it was 3.46 µM; in assay [7], 1.86 µM.
Take `O=C1CC[C@@H]2[C@H]3CCC(=O)c4c3c(c3cccc(O)c3c4O)O[C@@]23C(=O)c2cccc(O)c2C(O)=C13`: the GI50 in assay [2] was greater than 100 µM; in assay [3], greater than 100 µM; in assay [4], 61.4 µM; in assay [5], greater than 100 µM; in assay [6], greater than 100 µM; in assay [7], greater than 100 µM. Also, the TGI in assay [2], in assay [3], in assay [4], in assay [5], in assay [6] and in assay [7] was greater than 100 µM in each case.
Regarding `O=C(Nc1cccc2[nH]c(C(F)(F)F)nc12)c1ccc(Br)cc1F`, the GI50 in assay [1] was 3.33 µM; in assay [2], 3.01 µM; in assay [3], 4.05 µM; in assay [4], 3.1 µM; in assay [5], 6.75 µM; in assay [7], 3.16 µM. The TGI in assay [1] turned out to be 12.1 µM; in assay [2] it was 10.3 µM; in assay [3], 15.1 µM; in assay [4] it was 10.8 µM; in assay [5] it was 32.4 µM; in assay [7] it was 11.4 µM.
Take `O=C(NCCc1nccs1)c1cnc2c(S)cccc2c1`: the GI50 in assay [1] is 3.85 µM; in assay [2] it was 2.61 µM; in assay [3], 5.33 µM; in assay [5], 1.96 µM; in assay [6] it was 4.34 µM; in assay [7] it was 1.13 µM. For the same molecule, the TGI in assay [1] was 53.5 µM; in assay [2], greater than 100 µM; in assay [3], 36 µM; in assay [5], 24.7 µM; in assay [6], 37 µM; in assay [7] it was 10.2 µM.
`CC(C)(C)c1ccc(OCCCCCCCN2CCNCC2)cc1`: the GI50 in assay [1] is 1.57 µM; in assay [2] it was 1.53 µM; in assay [3], 1.63 µM; in assay [4] it was 2.73 µM; in assay [5], 1.92 µM. The TGI in assay [1] was found to be 2.98 µM; in assay [2], 3.01 µM; in assay [3], 3.07 µM; in assay [4], 7.62 µM; in assay [5] it was 3.66 µM.
For `O=C1c2ccccc2-n2c1nc1ccc([N+](=O)[O-])cc1c2=O`, the TGI in assay [2], in assay [3], in assay [4], in assay [5] and in assay [7] was greater than 100 µM each time.
For `O=C1/C(=C/c2ccc([N+](=O)[O-])s2)Oc2ccc(Br)cc21`, the GI50 in assay [1] was 0.397 µM; in assay [2], 0.257 µM; in assay [3] it was 0.565 µM; in assay [4], 0.567 µM; in assay [5], 0.309 µM; in assay [7], 0.202 µM. For the same molecule, the TGI in assay [1] stood at 1.78 µM; in assay [2] it was 0.741 µM; in assay [3] it was 4.84 µM; in assay [4], 2.93 µM; in assay [5] it was 0.964 µM; in assay [7], 0.41 µM.
As to `Cc1nc2sc(C(=O)Nc3cccc4c3OCCO4)c(N)c2cc1C(C)O` (configuration not stated), the GI50 is 0.454 µM in assay [1]; 5 µM in assay [3]; 5.65 µM in assay [4]; 4.84 µM in assay [5]; 2.62 µM in assay [6]; 5.57 µM in assay [7]. Also, the TGI in assay [1] is 3.54 µM; in assay [3], greater than 100 µM; in assay [4], greater than 100 µM; in assay [5], greater than 100 µM; in assay [6], greater than 100 µM; in assay [7], greater than 100 µM.
